# Assay results: ChEMBL document CHEMBL1687817, “Tigecycline population pharmacokinetics in patients with community- or hospital-acquired pneumonia” (Antimicrob Agents Chemother, 2010)
# Legend:
# Format in all cases: ADME, organism-based
# [1] = Clearance in patient with community or hospital-acquired pneumonia at […], iv loading dose followed by […] administered every 12 hrs; settings: human, in vivo
# Homo sapiens [2] = experiment: Distributional clearance in patient with community or hospital-acquired pneumonia at […], iv loading dose followed by […] administered every 12 hrs; settings: in vivo
# Homo sapiens [3] = experiment: Volume of distribution at steady state in patient with community or hospital-acquired pneumonia at […], iv loading dose followed by […] administered every 12 hrs; settings: in vivo
# [4] = Volume of distribution in central compartment in patient with community or hospital-acquired pneumonia at […], iv loading dose followed by […] administered every 12 hrs; settings: human, in vivo, read-out: Vc
smiles,measurement,setting,value
CN(C)c1cc(NC(=O)CNC(C)(C)C)c(O)c2c1C[C@H]1C[C@H]3[C@H](N(C)C)C(O)=C(C(N)=O)C(=O)[C@@]3(O)C(O)=C1C2=O [TIGECYCLINE],clearance,[1],320 mL/min
same,CLd,Homo sapiens [2],85.1 L/h
same,Vdss,Homo sapiens [3],398 L
same,Vd,[4],65.2 L
